Test results reported in US20190185479A1, “BICYCLIC NITROGENATED HETEROCYCLIC COMPOUND” (MITSUBISHI TANABE PHARMA CORPORATION, priority 2016, published 2019).

Columns and labels:
Format in all cases: biochemical
Human PDE7B (hPDE7B) = target: T1, Human PDE7B (hPDE7B) (Homo sapiens, UniProt Q9NP56); experiment: Measurement of PDE7 inhibitory activity (Experimental Example 1; residual cAMP, LANCE Ultra cAMP TR-FRET); conditions: cAMP 3 nmol/L, room temperature 60 minutes
T1 construct: made in house; host or cells: COS-7 cells
T1 sequence (Q9NP56 whole entry): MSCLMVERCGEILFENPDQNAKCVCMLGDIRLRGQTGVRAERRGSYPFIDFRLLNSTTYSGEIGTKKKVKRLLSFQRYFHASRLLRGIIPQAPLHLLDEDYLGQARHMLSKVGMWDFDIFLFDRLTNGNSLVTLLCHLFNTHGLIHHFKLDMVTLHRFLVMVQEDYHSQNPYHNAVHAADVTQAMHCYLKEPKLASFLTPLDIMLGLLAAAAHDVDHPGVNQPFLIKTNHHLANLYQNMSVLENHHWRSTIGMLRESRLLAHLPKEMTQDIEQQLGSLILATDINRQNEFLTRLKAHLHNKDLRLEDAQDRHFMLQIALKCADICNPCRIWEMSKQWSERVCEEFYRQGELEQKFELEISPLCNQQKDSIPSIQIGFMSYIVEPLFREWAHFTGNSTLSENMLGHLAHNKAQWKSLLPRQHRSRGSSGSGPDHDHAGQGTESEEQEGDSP
How it was run: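 hPDE7B from transfected COS-7 cells reacted with 3 nmol/L cAMP (final) and compound (2% DMSO) in 50 mmol/L Tris-HCl pH 7.5, 1 mmol/L MgCl2, 0.1% BSA, 0.5 mmol/L DTT, 60 min at room temperature. Reaction stopped with IBMX; residual cAMP measured by TR-FRET. Inhibition scaled between no-compound and no-enzyme controls.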

hPDE4D = target: T2, hPDE4D (Homo sapiens, UniProt Q08499); experiment: PDE4 inhibition assay (IC50), Experimental Example 3; conditions: for IC50: hPDE4D, read-out: PDE inhibition assay IC50, PDE4; for inhibition at 10 µM: at 10 μmol/L; for inhibition at 10 µM / inhibition at 0.1 µM / inhibition at 1 µM: read-out: inhibition rate (%) at prescribed concentration, PDE4; for inhibition at 0.1 µM: at 0.1 μmol/L
T2 construct: purchased SB Drug Discovery
T2 sequence (Q08499 whole entry): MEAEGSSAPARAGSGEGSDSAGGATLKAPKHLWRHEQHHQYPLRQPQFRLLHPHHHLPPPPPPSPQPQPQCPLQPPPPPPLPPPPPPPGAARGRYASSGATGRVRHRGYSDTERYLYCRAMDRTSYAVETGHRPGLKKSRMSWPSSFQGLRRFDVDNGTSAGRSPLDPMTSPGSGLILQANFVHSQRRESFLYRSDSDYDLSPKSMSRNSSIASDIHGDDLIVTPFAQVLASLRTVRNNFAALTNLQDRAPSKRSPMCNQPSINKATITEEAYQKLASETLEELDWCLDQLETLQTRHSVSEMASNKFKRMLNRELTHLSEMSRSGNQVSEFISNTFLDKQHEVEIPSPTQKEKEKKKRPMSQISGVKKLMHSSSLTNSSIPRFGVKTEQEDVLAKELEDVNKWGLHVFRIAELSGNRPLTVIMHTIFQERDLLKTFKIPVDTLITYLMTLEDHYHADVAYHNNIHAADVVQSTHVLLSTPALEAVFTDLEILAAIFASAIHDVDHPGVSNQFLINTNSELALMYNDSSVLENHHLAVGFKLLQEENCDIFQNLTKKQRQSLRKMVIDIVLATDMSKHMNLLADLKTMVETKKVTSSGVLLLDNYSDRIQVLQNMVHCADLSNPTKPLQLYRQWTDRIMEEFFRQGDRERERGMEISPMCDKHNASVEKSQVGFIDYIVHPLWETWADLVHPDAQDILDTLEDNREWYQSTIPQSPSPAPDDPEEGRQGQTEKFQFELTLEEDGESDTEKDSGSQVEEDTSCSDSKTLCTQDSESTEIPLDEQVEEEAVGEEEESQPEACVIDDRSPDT
Experimental: (§1) PDE7 inhibitory assay was carried out by reacting the mixture of a compound, hPDE7B, and cAMP, and measuring the residual cAMP by a detection method using LANCE (registered trademark) Ultra cAMP Detection Kit (ParkinElmer). The compound was dissolved in DMSO, and diluted so that the concentration would become 50 times of the final concentration. The hPDE7B and cAMP were diluted with an assay buffer (50 mmol/L Tris-HCl, 1 mmol/L MgCl2, 0.1% BSA, 0.5 mmol/L DTT, pH7.5) so that the hPDE7B would have an appropriate enzyme activity and the concentration of cAMP would become 6 nmol/L. To a 96 well plate were added the compound (2 μL) (DMSO final concentration: 2%), hPDE7B (48 μL), and cAMP (50 μL) (concentration at the reaction: 3 nmol/L), and the resulting mixture was reacted at room temperature for 60 minutes. The reaction solution (20 μL) was subjected to a TR-FRET method according to the protocol specified by the kit to measure the concentration of the residual cAMP. In the assay, to a tracer solution specified by the kit was added 0.5 mmol/L of 3-isobutyl-1-methylxanthine (IBMX, nonselective PDE inhibitor) in order to stop the PDE enzyme reaction after the completion of reaction until the measurement.
(§2) The prediction of PDE7 selectivity was evaluated by comparing each IC50 value of a compound against PDE4, 8, and 10 with the IC50 value of said compound against PDE7B.
(§3) hPDE4D, hPDE8B, and hPDE10A were prepared by the same method as [Method for preparing samples 2].
(§4) PDE4, 8, and 10 inhibitory assays were carried out by the same method as [Assay procedure 1].
(§5) The reaction without a compound wad defined as “0% inhibition”, the reaction without each PDE was defined as “100% inhibition”, and the calculation of IC50 value was carried out by the same method as <Method for data calculation 1>.

hPDE8B = target: T3, hPDE8B (Homo sapiens, UniProt O95263); experiment: PDE8 inhibition assay (IC50), Experimental Example 3; conditions: for IC50: hPDE8B, read-out: PDE inhibition assay IC50, PDE8; for inhibition at 10 µM: at 10 μmol/L; for inhibition at 0.1 µM: at 0.1 μmol/L
T3 construct: purchased SB Drug Discovery
T3 sequence (O95263 whole entry): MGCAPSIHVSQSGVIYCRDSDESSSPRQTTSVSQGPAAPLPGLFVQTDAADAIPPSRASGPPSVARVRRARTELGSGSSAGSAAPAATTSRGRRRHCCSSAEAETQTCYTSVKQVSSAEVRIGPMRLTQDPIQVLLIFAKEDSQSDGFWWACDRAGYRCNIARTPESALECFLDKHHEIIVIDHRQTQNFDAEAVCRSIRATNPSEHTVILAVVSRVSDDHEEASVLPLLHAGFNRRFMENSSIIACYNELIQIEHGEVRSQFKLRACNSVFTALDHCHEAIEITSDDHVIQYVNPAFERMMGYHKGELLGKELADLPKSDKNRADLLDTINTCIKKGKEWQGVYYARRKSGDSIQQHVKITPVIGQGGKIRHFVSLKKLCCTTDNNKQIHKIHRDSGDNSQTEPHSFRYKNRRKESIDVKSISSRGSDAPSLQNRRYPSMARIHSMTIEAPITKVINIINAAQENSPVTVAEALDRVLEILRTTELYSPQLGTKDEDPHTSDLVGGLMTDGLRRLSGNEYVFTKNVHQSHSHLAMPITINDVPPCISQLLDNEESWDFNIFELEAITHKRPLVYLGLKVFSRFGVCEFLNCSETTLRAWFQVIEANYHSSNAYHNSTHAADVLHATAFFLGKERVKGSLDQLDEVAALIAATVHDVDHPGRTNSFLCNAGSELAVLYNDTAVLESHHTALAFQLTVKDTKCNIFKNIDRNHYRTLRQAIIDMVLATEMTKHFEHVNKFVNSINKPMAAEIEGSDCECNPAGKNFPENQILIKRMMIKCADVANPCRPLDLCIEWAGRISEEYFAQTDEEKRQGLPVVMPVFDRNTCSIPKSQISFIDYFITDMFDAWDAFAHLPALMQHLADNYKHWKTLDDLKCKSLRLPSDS
Experimental: as §1, §2, §3, §4, §5

hPDE10A = hPDE10A (Homo sapiens, UniProt Q9Y233); experiment: PDE10 inhibition assay (IC50), Experimental Example 3; conditions: for IC50: hPDE10A, read-out: PDE inhibition assay IC50, PDE10; for inhibition at 10 µM: read-out: inhibition rate (%) at prescribed concentration, PDE10
Sequence of hPDE10A (Q9Y233 290-1055 limits assumed): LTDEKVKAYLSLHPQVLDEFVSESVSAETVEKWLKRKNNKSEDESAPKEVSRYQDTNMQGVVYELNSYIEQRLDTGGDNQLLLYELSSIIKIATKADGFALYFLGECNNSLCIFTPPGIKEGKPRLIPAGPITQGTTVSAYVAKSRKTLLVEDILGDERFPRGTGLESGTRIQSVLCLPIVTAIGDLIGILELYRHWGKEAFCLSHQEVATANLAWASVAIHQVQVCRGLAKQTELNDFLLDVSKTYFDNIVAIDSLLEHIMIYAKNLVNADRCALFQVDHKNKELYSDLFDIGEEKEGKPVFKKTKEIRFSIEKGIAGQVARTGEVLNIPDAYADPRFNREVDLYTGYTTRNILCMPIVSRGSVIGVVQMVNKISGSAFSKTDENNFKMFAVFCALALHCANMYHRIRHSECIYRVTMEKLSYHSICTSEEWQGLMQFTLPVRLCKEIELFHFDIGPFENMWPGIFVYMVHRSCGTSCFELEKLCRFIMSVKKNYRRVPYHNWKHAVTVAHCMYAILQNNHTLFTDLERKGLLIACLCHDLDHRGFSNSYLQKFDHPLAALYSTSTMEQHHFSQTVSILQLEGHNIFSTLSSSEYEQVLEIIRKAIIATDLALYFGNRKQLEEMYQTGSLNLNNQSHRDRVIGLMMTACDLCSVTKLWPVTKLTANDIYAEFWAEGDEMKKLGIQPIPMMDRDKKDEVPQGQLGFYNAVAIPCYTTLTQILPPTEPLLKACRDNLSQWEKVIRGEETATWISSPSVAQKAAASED
Experimental: as §1, §2, §3, §4, §5

[1] = read-out: inhibition rate (%) at prescribed concentration, PDE8

Compound	IC50 (Human PDE7B (hPDE7B)) [µM]	IC50 (hPDE4D) [µM]	IC50 (hPDE8B) [µM]	IC50 (hPDE10A) [µM]	other results
CC1(C)CCCC(c2nnc3c(N)nccn23)C1 (single isomer, unassigned) [Example 207, 3-(3,3-dimethylcyclohexyl) [1,2,4]triazolo[4,3-a]pyrazin-8-amine]	< 0.01	10.5	1.5	10.2	–
Nc1ncnc2c1cnn2C1CCCCC1 [Example 181]	0.34	–	–	–	inhibition at 10 µM (hPDE4D): 21%; inhibition at 10 µM (hPDE8B; [1]): 24%; inhibition at 10 µM (hPDE10A; at 10 μmol/L): 49%
CC1CC(c2nnc3c(N)nccn23)CC(F)(F)C1 (single isomer, unassigned) [Example 216, 3-(trans-3,3-difluoro-5-methylcyclohexyl[1,2,4]triazolo[4,3-a]pyrazin-8-amine]	0.05	30.6	16.6	37.9	–
Nc1nccn2c(C3CCC4CC4C3)nnc12 (single isomer, unassigned) [Example 221, 3-(bicyclo[4.1.0]hept-3-yl) [1,2,4]triazolo[4,3-a]pyrazin-8-amine]	0.06	–	–	4.8	inhibition at 0.1 µM (hPDE4D): 55%; inhibition at 0.1 µM (hPDE8B; [1]): 69%
Nc1ncnc2c(C3CCCCC3)noc12 [Example 188, 3-cyclohexylisoxazolo[4,5-d]pyrimidin-7-amine]	0.21	–	7.33	–	inhibition at 10 µM (hPDE4D): 38%; inhibition at 10 µM (hPDE10A; at 10 μmol/L): 50%
Nc1nccn2c(C3CCc4[nH]ncc4C3)nnc12 (stereo not drawn) [Example 159]	0.06	4.77	3.51	10.6	–
Cc1nn(C2CCCCC2)c2ncnc(N)c12 [Example 184]	0.54	–	–	0.5	inhibition at 10 µM (hPDE4D): 48%; inhibition at 10 µM (hPDE8B; [1]): 18%
CC(C)(C)OC(=O)N1CCC[C@H](c2nnc3c(N)nccn23)C1 [Example 167]	0.06	–	–	3.7	inhibition at 0.1 µM (hPDE4D): 66%; inhibition at 0.1 µM (hPDE8B; [1]): 98%
Nc1nccn2c(C3CCCC4(CC4)C3)nnc12 (single isomer, unassigned) [Example 208, 3-(spiro[2,5]oct-5-yl) [1,2,4]triazolo[4,3-a]pyrazin-8-amine]	< 0.01	10.3	3.4	8.6	–
Nc1nccn2c(N3CCCCC3)nnc12 [Example 166]	0.16	3.87	8.89	–	inhibition at 10 µM (hPDE10A; at 10 μmol/L): 39%
CC1CCCC(c2nnc3c(N)ncnn23)C1 (single isomer, unassigned) [Example 240, 3-(cis-3-methylcyclohexyl) [1,2,4]triazolo[3,4-f][1,2,4]triazin-8-amine]	< 0.01	–	–	3.1	inhibition at 1 µM (hPDE4D; at 1 μmol/L): 86%; inhibition rate (%) at prescribed concentration, PDE8 (hPDE8B; at 1 μmol/L): 95% at 1
CC1CCN(c2nnc3c(N)nccn23)CC1C (single isomer, unassigned) [Example 231, 3-(3,4-dimethylpiperidin-1-yl) [1,2,4]triazolo[4,3-a]pyrazin-8-amine]	0.01	3.6	2.1	4.8	–
CC1CCC(F)(F)CC1c1nnc2c(N)nccn12 (stereo not drawn) [Example 153]	0.07	35.1	21.9	18.6	–
CC1CCCCC1c1nnc2c(N)ncnn12 (single isomer, unassigned) [Example 70, 3-(cis-2-methylcyclohexyl) [1,2,4]triazolo[3,4-f][1,2,4]triazin-8-amine]	0.025	–	–	1.8	inhibition rate (%) at prescribed concentration, PDE4 (hPDE4D; at 1 μmol/L): 67% at 1; inhibition rate (%) at prescribed concentration, PDE8 (hPDE8B; at 1 μmol/L): 64% at 1
C[C@H]1CC[C@H](n2nnc3c(N)ncnc32)CC1 [Example 8, 3-(trans-4-methylcyclohexyl)-3H-[1,2,3]triazolo[4,5-d]pyrimidin-7-amine]	0.01	2.13	0.24	–	inhibition at 10 µM (hPDE10A; at 10 μmol/L): 48%
CC1CCCC(n2nnc3c(N)ncnc32)C1 (single isomer, unassigned) [Example 199, 3-(trans-3-methylcyclohexyl)-3H-[1,2,3]triazolo[4,5-d]pyrimidin-7-amine]	0.03	3.84	6.87	–	inhibition rate (%) at prescribed concentration, PDE10 (hPDE10A; at 10 μmol/L): 29% at 10
Nc1ncnn2c(C3CCCC(F)(F)C3)nnc12 (racemic) [Example 82, 3-(3,3-difluorocyclohexyl) [1,2,4]triazolo[3,4-f][1,2,4]triazin-8-amine]	0.04	6.21	2.49	17.9	–
CC1CCCN(c2nnc3c(N)nccn23)C1C (single isomer, unassigned) [Example 57, 3-(2,3-dimethylpiperidin-1-yl) [1,2,4]triazolo[4,3-a]pyrazin-8-amine]	0.05	6.4	9.9	8.7	–
Nc1nccn2c(N3CCCC4(CC4)C3)nnc12 [Example 44]	0.08	7.85	5.51	24.1	–
CC1(C)CCCC(c2nnc3c(N)ncnn23)C1 (single isomer, unassigned) [Example 242, 3-(3,3-dimethylcyclohexyl) [1,2,4]triazolo[3,4-f][1,2,4]triazin-8-amine]	< 0.01	–	–	2.86	inhibition at 1 µM (hPDE4D; at 1 μmol/L): 53%; inhibition at 1 µM (hPDE8B; at 1 μmol/L, read-out: inhibition rate (%) at prescribed concentration, PDE8): 84%
Nc1nccn2c(C3CCCC3)nnc12 [Example 161]	0.11	5.5	1.77	–	inhibition at 10 µM (hPDE10A; at 10 μmol/L): 27%
Cc1cnc(N)c2nnc(N3CCCC(C)(C)C3)n12 [Example 80, 3-(3,3-dimethylpiperidin-1-yl)-5-methyl[1,2,4]triazolo[4,3-a]pyrazin-8-amine]	0.003	6	3	8	–
CC1CCC(C)N(c2nnc3c(N)ncc(C#N)n23)C1 (single isomer, unassigned) [Example 234, 8-amino-3-(2,5-dimethylpiperidin-1-yl) [1,2,4]triazolo[4,3-a]pyrazine-5-carbonitrile]	0.00015	6.3	2.7	3.2	–
CC1(C)CCC(n2nnc3c(N)ncnc32)CC1 [Example 101, 3-(4,4-dimethylcyclohexyl)-3H-[1,2,3]triazolo[4,5-d]pyrimidin-7-amine]	0.02	0.64	–	5.84	inhibition at 0.1 µM (hPDE8B; [1]): 69%
CC1(C)CCCN(c2nnc3c(N)ncc(C#N)n23)C1 [Example 2, 8-amino-3-(3,3-dimethylpiperidin-1-yl) [1,2,4]triazolo[4,3-a]pyrazine-5-carbonitrile]	0.0007	–	1.62	6.23	inhibition at 1 µM (hPDE4D; at 1 μmol/L): 61%
Nc1ncnc2c1nnn2C1CCCC(C(F)(F)F)C1 (single isomer, unassigned) [Example 202, 3-[cis-3-(trifluoromethyl)cyclohexyl]-3H-[1,2,3]triazolo[4,5-d]pyrimidin-7-amine]	0.014	5.31	1.16	–	inhibition at 10 µM (hPDE10A; at 10 μmol/L): 27%
Nc1ncnc2c1nnn2C1CCC(F)(F)CC1 [Example 104]	0.17	9.45	2.06	–	inhibition at 10 µM (hPDE10A; at 10 μmol/L): 25%
